The values that follow are results of earlier work, collected in patent US4652627A, “Calcitonin analogs with C-terminal D-amino acid substituents” (priority 1985, dated 1987).

For the data set the following is noted: relative to human calcitonin = 100%.

Positions of bridges follow the written chain, without caps; N, C: chain ends. No end group written: not given here.

For “deletion of the entire prolinamide moiety: human calcitonin with the entire C-terminal prolinamide moiety deleted (CGNLSTCMLGTYTQDFNKFHTFPQTAIGVGA; ends and bridges not checked; cysteine pairing not given here; UniProt P01258 85-115, looked up, fragment)”, the activity is reported as 0.12%.

For “human calcitonin (CGNLSTCMLGTYTQDFNKFHTFPQTAIGVGAP-NH2; disulfide 1-7; ends not checked; UniProt P01258 85-116, looked up) [natural 32 amino acid calcitonin of human origin with C-terminal prolinamide]”, the activity is reported as 100%.
